In patent publication US20260285846A1, “REV-ERB AGONISTS FOR TH17-MEDIATED INFLAMMATORY DISORDERS” (UNIVERSITY OF FLORID RESEARCH FOUNDATION, iNCORPORATED, priority 2021, published 2026):

target: REV-ERBα LBD (Homo sapiens, UniProt P20393, DEL324-422); assay: biochemical; conditions: FRET assay; 6xHistag-REV-ERBα LBD with FITC-labeled SMRT corepressor peptide; read-out: REVERBα (Agonism of REV-ERBα, EC50)
Method in brief: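 Serially diluted ligands were incubated 2 h at 4° C, in triplicate, with E. coli-expressed His-REV-ERBα LBD (281-614 Δ324-422 or 381-579; 4 nM), Tb-anti-His (1 nM) and FITC-labelled SMRT peptide (400 nM). EC50 came from sigmoidal fits of the 520/495 nm TR-FRET ratio.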

Sequence of REV-ERBα LBD (P20393 with tags, fused parts or gaps DEL324-422): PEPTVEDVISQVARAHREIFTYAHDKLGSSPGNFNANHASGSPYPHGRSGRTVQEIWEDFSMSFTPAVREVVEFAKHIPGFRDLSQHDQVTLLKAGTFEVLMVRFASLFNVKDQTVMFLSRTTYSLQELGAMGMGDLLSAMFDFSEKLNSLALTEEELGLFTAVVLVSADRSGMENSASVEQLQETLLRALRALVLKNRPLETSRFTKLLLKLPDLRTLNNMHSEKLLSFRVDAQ
Sequence of REV-ERBα LBD (Q9Y618 2335-2356 partner limits assumed): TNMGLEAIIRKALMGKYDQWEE

| Structure (SMILES) | EC50 [nM] |
| --- | --- |
| Cc1nccc(C(F)(F)F)c1-c1cc2c(cc1F)c([C@H](NS(=O)(=O)C1CC1)C(F)F)cn2CC(C)(C)C [Compound 130, N-((1S)-2,2-difluoro-1-(5-fluoro-6-(2-methyl-4-(trifluoromethyl)pyridin-3-yl)-1-neopentyl-1H-indol-3-yl)ethyl)cyclopropanesulfonamide] | < 100 |
| CC(C)(C)Cn1cc([C@H](NS(=O)(=O)C2CC2)C(F)F)c2cc(F)c(-c3c(C(F)F)ccnc3C#N)cc21 [Compound 122, N-((1S)-1-(6-(2-cyano-4-(difluoromethyl)pyridin-3-yl)-5-fluoro-1-neopentyl-1H-indol-3-yl)-2,2-difluoroethyl)cyclopropanesulfonamide] | < 100 |
| CN(C)S(=O)(=O)N[C@@H](c1cn(CC(C)(C)C)c2cc(-c3ncc(F)cc3C(F)(F)F)ccc12)C(F)F [Compound 74] | < 100 |
| Cc1ccccc1-c1cc2c(cc1F)c([C@H](NS(=O)(=O)C1CC1)C(F)F)cn2CC(C)(C)C [Compound 12, (S)—N-(2,2-difluoro-1-(5-fluoro-1-neopentyl-6-(o-tolyl)-1H-indol-3yl)ethyl)cyclopropanesulfonamide] | < 100 |
| CC(NS(=O)(=O)C1CC1)c1cn(CC(C)(C)C)c2cc(-c3cccnc3C(F)F)c(F)cc12 (stereo not drawn) [Compound 65, N-(1-(6-(2-(difluoromethyl)pyridin-3-yl)-5-fluoro-1-neopentyl-1H-indol-3-yl)ethyl)cyclopropanesulfonamide] | < 100 |
| CC(C)(C)Cn1cc([C@H](NS(=O)(=O)C2CC2)C(F)F)c2ccc(-c3nccnc3C#N)cc21 [Compound 48, (S)—N-(1-(6-(3-cyanopyrazin-2-yl)-1-neopentyl-1H-indol-3-yl)-2,2-difluoroethyl)cyclopropanesulfonamide] | 100 to 1000 |
| CC(C)(C)Cn1cc([C@H](NS(=O)(=O)C2CC2)C(F)F)c2cc(F)c(-c3c(F)ccnc3C(F)(F)F)cc21 [Compound 131, N-((1S)-2,2-difluoro-1-(5-fluoro-6-(4-fluoro-2-(trifluoromethyl)pyridin-3-yl)-1-neopentyl-1H-indol-3-yl)ethyl)cyclopropanesulfonamide] | < 100 |
| CC(C)(C)Cn1cc([C@H](NS(=O)(=O)C2CC2)C(F)F)c2ccc(-c3ncc(F)cc3Cl)cc21 [Compound 78, (S)—N-(1-(6-(3-chloro-5-fluoropyridin-2-yl)-1-neopentyl-1H-indol-3-yl)-2,2-difluoroethyl)cyclopropanesulfonamide] | < 100 |
| Nc1ccc(-c2nc3c(cc2F)c([C@H](NS(=O)(=O)C2CC2)C(F)F)cn3C2CCC2)c(C(F)(F)F)n1 [Compound 180, (S)—N-(1-(6-(6-amino-2-(trifluoromethyl)pyridin-3-yl)-1-cyclobutyl-5-fluoro-1H-pyrrolo[2,3-b]pyridin-3-yl)-2,2-difluoroethyl)cyclopropanesulfonamide] | < 100 |
| CC(C)(C)Cn1cc([C@H](NS(=O)(=O)C2CC2)C(F)F)c2cc(F)c(-c3nccnc3C(F)(F)F)cc21 [Compound 57, (S)—N-(2,2-difluoro-1-(5-fluoro-1-neopentyl-6-(3-(trifluoromethyl)pyrazin-2-yl)-1H-indol-3-yl)ethyl)cyclopropanesulfonamide] | < 100 |
| CC(NS(=O)(=O)C1CC1)c1cn(CC(C)(C)C)c2cc(-c3c(F)cccc3C#N)ccc12 (single isomer, unassigned) [Compound 26, (R or S) N-(1-(6-(2-cyano-6-fluorophenyl)-1-neopentyl-1H-indol-3-yl)ethyl)cyclopropanesulfonamide] | 100 to 1000 |
| N#Cc1cccc(C(F)(F)F)c1-c1nc2c(cc1F)c([C@H](NS(=O)(=O)C1CC1)C(F)F)cn2C1CCC1 [Compound 158, N-((1S)-1-(6-(2-cyano-6-(trifluoromethyl)phenyl)-1-cyclobutyl-5-fluoro-1H-pyrrolo[2,3-b]pyridin-3-yl)-2,2-difluoroethyl)cyclopropanesulfonamide] | < 100 |
| CC(C)(C)Cn1cc([C@H](NS(=O)(=O)C2CC2)C(F)F)c2cc(F)c(-c3cnc(C#N)cc3C(F)(F)F)cc21 [Compound 133, (S)—N-(1-(6-(6-cyano-4-(trifluoromethyl)pyridin-3-yl)-5-fluoro-1-neopentyl-1H-indol-3-yl)-2,2-difluoroethyl)cyclopropanesulfonamide] | < 100 |
| CC(C)(C)Cn1cc([C@H](NS(=O)(=O)C2CC2)C(F)F)c2ccc(-c3c(C(F)(F)F)ccnc3C#N)cc21 [Compound 82, (S)—N-(1-(6-(2-cyano-4-(trifluoromethyl)pyridin-3-yl)-1-neopentyl-1H-indol-3-yl)-2,2-difluoroethyl)cyclopropanesulfonamide] | < 100 |
| CC(NS(=O)(=O)C1CC1)c1cn(CC(C)(C)C)c2cc(-c3cncc(F)c3)c(F)cc12 (stereo not drawn) [Compound 68, N-(1-(5-fluoro-6-(5-fluoropyridin-3-yl)-1-neopentyl-1H-indol-3-yl)ethyl)cyclopropanesulfonamide] | 100 to 1000 |
| CC(C)(C)Cn1cc([C@H](NS(=O)(=O)C2CC2)C(F)F)c2cc(F)c(-c3ncccc3F)cc21 [Compound 89, (S)—N-(2,2-difluoro-1-(5-fluoro-6-(3-fluoropyridin-2-yl)-1-neopentyl-1H-indol-3-yl)ethyl)cyclopropanesulfonamide] | < 100 |
| Cc1ccccc1-c1ccc2c([C@H](NS(=O)(=O)C3CC3)C(F)F)cn(CC(C)(C)C)c2c1 [Compound 15, (S)—N-(2,2-difluoro-1-(1-neopentyl-6-(o-tolyl)-1H-indol-3-yl)ethyl)cyclopropanesulfonamide] | < 100 |
| CC(C)(C)Cn1cc([C@H](NS(=O)(=O)C2CC2)C(F)F)c2cc(F)c(-c3ccc(F)cc3C(F)(F)F)nc21 [Compound 153, (S)—N-(2,2-difluoro-1-(5-fluoro-6-(4-fluoro-2-(trifluoromethyl)phenyl)-1-neopentyl-1H-pyrrolo[2,3-b]pyridin-3-yl)ethyl)cyclopropanesulfonamide] | < 100 |
| CC(C)(C)Cn1cc([C@H](NS(=O)(=O)C2CC2)C(F)F)c2ccc(-c3ncccc3F)cc21 [Compound 83, (S)—N-(2,2-difluoro-1-(6-(3-fluoropyridin-2-yl)-1-neopentyl-1H-indol-3-yl)ethyl)cyclopropanesulfonamide] | < 100 |
| CC(NS(=O)(=O)C1CC1)c1cn(CC(C)(C)C)c2cc(-c3cncc(C#N)c3)c(F)cc12 (stereo not drawn) [Compound 37, N-[1-[6-(5-cyano-3-pyridyl)-1-(2,2-dimethylpropyl)-5-fluoro-indol-3-yl]ethyl]cyclopropanesulfonamide] | 100 to 1000 |
| CC(NS(=O)(=O)C1CC1)c1cn(CC(C)(C)C)c2cc(-c3cnccc3C#N)c(F)cc12 (single isomer, unassigned) [Compound 33, (S or R) N-(1-(6-(4-cyanopyridin-3-yl)-5-fluoro-1-neopentyl-1H-indol-3-yl)ethyl)cyclopropanesulfonamide] | 100 to 1000 |
| Cc1ccnc(C(F)F)c1-c1cc2c(cc1F)c([C@H](NS(=O)(=O)C1CC1)C(F)F)cn2CC(C)(C)C [Compound 127, N-((1S)-1-(6-(2-(difluoromethyl)-4-methylpyridin-3-yl)-5-fluoro-1-neopentyl-1H-indol-3-yl)-2,2-difluoroethyl)cyclopropanesulfonamide] | < 100 |
| CC(C)(C)Cn1cc([C@H](NS(=O)(=O)C2CC2)C(F)F)c2ccc(-c3ccc(F)cc3C(F)F)cc21 [Compound 105, (S)—N-(1-(6-(2-(difluoromethyl)-4-fluorophenyl)-1-neopentyl-1H-indol-3-yl)-2,2-difluoroethyl)cyclopropanesulfonamide] | < 100 |
| CC(C)(C)Cn1cc([C@H](NS(=O)(=O)C2CC2)C(F)F)c2cc(F)c(-c3ncc(F)cc3F)cc21 [Compound 91, (S)—N-(1-(6-(3,5-difluoropyridin-2-yl)-5-fluoro-1-neopentyl-1H-indol-3-yl)-2,2-difluoroethyl)cyclopropanesulfonamide] | < 100 |
| CC(C)(C)Cn1cc([C@H](NS(=O)(=O)C2CC2)C(F)F)c2cc(F)c(-c3ncccc3C3CC3)cc21 [Compound 115, (S)—N-(1-(6-(3-cyclopropylpyridin-2-yl)-5-fluoro-1-neopentyl-1H-indol-3-yl)-2,2-difluoroethyl)cyclopropanesulfonamide] | < 100 |
| CN(C)S(=O)(=O)N[C@@H](c1cn(CC(C)(C)C)c2cc(-c3nccnc3C(F)(F)F)ccc12)C(F)F [Compound 51] | < 100 |
| CC(C)(C)Cn1cc([C@H](NS(=O)(=O)C2CC2)C(F)F)c2ccc(-c3ncc(F)cc3C#N)cc21 [Compound 88, (S)—N-(1-(6-(3-cyano-5-fluoropyridin-2-yl)-1-neopentyl-1H-indol-3-yl)-2,2-difluoroethyl)cyclopropanesulfonamide] | < 100 |
